Laboratory results taken from publication PMC4401082 (European journal of medicinal chemistry, 2014).

What was measured:
[1] = biological target: T1, oCOX-1 (ovine cyclooxygenase-1) (Ovis aries, UniProt P05979); assay: [[…]-14C]-arachidonic acid TLC COX activity assay with purified enzyme; assay type: biochemical
T1 sequence (P05979 25-600): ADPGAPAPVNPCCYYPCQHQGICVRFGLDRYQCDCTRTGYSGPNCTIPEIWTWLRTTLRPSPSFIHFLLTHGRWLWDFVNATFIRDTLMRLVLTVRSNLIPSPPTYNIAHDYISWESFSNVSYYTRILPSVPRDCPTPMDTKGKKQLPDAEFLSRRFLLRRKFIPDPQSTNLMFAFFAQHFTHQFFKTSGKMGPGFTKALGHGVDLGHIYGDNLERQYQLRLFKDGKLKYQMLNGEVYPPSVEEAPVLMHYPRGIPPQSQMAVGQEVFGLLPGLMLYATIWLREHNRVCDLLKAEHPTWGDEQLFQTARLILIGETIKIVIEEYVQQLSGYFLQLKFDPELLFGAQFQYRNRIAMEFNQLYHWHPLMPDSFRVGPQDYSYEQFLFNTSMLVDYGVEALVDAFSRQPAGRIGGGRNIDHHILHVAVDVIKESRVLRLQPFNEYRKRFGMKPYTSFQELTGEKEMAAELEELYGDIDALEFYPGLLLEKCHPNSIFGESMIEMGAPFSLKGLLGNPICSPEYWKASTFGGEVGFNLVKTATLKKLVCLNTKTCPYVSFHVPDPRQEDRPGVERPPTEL

[2] = biological target: hCOX-1 (cyclooxygenase-1) (Homo sapiens, UniProt P23219); assay: [[…]-14C]-arachidonic acid metabolism in intact OVCAR-3 cells; assay type: cell-based
hCOX-1 (cyclooxygenase-1), sequence (P23219 24-599): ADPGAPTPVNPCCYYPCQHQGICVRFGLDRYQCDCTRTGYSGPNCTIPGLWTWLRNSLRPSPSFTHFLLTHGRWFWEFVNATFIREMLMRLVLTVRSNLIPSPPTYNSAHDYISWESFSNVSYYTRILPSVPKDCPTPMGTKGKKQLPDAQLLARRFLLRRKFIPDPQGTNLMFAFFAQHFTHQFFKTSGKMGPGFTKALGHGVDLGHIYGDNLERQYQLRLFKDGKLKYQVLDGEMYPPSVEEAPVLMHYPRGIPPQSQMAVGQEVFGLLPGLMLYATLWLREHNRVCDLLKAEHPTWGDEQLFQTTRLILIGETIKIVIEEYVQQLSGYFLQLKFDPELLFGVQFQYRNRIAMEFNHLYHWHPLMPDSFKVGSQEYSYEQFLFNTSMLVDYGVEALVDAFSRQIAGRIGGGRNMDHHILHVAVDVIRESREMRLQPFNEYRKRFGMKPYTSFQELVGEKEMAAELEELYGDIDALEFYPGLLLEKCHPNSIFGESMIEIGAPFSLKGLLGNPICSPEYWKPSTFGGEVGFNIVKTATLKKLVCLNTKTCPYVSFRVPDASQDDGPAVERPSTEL

- IC50 [1]: 2 µM
- IC50 [2]: 1.37 µM
SMILES: FCc1onc(-c2ccc(Cl)o2)c1-c1ccccc1 [[19F]-P6, 3-(5-chlorofuran-2-yl)-5-(fluoromethyl)-4-phenylisoxazole]
